Test results: US20140171431A1, “AZOLE HETEROCYCLIC COMPOUND, PREPARATION METHOD, PHARMACEUTICAL COMPOSITION AND USE” (priority 2011, published 2014)
Read-outs that look alike come from different tables or passages of the source.

Legend:
Lp-PLA2 in human serum = target: T1, Lp-PLA2 in human serum (Homo sapiens, UniProt Q13093); experiment: In vitro inhibitory activity towards the enzyme Lp-PLA2 in human serum, [3H]PAF substrate; type: biochemical
T1 construct: from tissue
T1 sequence (Q13093 22-441): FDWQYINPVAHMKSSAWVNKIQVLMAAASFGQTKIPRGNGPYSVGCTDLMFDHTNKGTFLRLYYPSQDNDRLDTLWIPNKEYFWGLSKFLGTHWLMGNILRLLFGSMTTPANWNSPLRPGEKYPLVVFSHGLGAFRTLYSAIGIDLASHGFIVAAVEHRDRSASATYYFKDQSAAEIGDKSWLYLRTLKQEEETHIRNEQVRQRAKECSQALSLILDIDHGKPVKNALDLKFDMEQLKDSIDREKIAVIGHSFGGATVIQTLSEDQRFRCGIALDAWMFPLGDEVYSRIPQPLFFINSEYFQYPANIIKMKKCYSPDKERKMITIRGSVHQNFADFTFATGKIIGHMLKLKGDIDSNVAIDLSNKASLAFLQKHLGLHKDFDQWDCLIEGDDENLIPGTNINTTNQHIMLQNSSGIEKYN
Experimental: The activities of compounds were measured using [^3H] labeled platelet activating factor ([^3H]PAF, Perkinelmer, Lot NET910) as the substrate. The reaction was carried out in a system containing 50 mmol/l HEPES and 150 mmol/l NaCl (pH 7.4) in a total volume of 200 μl. First, 10 μL human plasma and 10 μl DMSO solution of the test compound were added to the system and preincubated for 10 min at 37° C. Then 20 nM [^3H]PAF was added as listed in table 1 to start the reaction and incubated for a further 10 min at 37° C. After that, 600 μl of CHCl3/MeOH (2:1) was added and the resulting mixture was mixed with vortex. After settled for a while, the mixture was centrifugated at 12000×g for 15 min. The supernatant was transferred to a new tube and 200 μl of CHCl3 was added and mixed by vortexing. The mixture was settled or centrifugated for 2 min. A 100 μl portion of the supernatant was then collected for radioactivity intensity measurement.

Lp-PLA2 in rabbit serum = target: T2, Lp-PLA2 in rabbit serum (Oryctolagus cuniculus, UniProt G1SE06); experiment: In vitro inhibitory activity towards the enzyme Lp-PLA2 in rabbit serum, [3H]PAF substrate; type: biochemical; conditions: 100 nM
T2 construct: from tissue; host or cells: rabbit serum
T2 sequence (G1SE06 22-423): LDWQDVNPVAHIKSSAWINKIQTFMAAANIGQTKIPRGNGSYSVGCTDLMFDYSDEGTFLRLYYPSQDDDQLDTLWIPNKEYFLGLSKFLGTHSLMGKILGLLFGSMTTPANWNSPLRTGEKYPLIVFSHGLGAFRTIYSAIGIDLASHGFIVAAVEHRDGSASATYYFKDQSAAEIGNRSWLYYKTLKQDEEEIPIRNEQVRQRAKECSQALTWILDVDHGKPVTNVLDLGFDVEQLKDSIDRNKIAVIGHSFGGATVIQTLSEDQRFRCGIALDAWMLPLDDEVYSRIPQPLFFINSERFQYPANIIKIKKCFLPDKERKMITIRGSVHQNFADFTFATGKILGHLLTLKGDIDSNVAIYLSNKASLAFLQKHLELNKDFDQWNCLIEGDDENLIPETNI

[1] = 10 nM, human serum, read-out: inhibition, %
[2] = rabbit serum, read-out: inhibition, %
[3] = 10 nM, read-out: inhibitory rate towards the human serum derived Lp-PLA2 enzyme
[4] = read-out: inhibitory rate towards the rabbit serum derived Lp-PLA2 enzyme

SMILES | inhibition at 0.01 µM (Lp-PLA2 in human serum; [1]) | inhibition at 0.1 µM (Lp-PLA2 in human serum; 100 nM, human serum) | inhibition at 0.1 µM (Lp-PLA2 in rabbit serum; [2]) | inhibition at 0.01 µM (Lp-PLA2 in human serum; [3]) | inhibition at 0.1 µM (Lp-PLA2 in rabbit serum; [4]) | inhibition, % (Lp-PLA2 in human serum; 10 nM, human serum, 0.01 µM) | inhibition, % (Lp-PLA2 in human serum; 100 nM, human serum, 0.1 µM) | inhibition, % (Lp-PLA2 in rabbit serum; rabbit serum, 0.1 µM)
Cc1nnc(Cn2cc(Cc3cnn(C)c3)c(=O)nc2SCc2ccc(F)cc2)n1Cc1ccc(-c2ccc(C(F)(F)F)cc2)cc1 [Example 65, 2-(4-fluorobenzylthio)-5-((1-methyl-1H-pyrazol-4-yl)methyl)-1-((5-methyl-4-((4′-(trifluoromethyl)biphenyl-4-yl)methyl)-4H-1,2,4-triazol-3-yl)methyl)pyrimidin-4(1H)-one] | 82% | 96% | 60% | – | – | – | – | –
CCN(CC)CCOCc1nnc(Cn2c(SCc3ccc(F)cc3)nc(=O)c3c2CCC3)n1Cc1ccc(-c2ccc(C(F)(F)F)cc2)cc1 [Example 125, 1-((5-((2-(diethylamino)ethoxy)methyl)-4-((4′-(trifluoromethyl)biphenyl-4-yl)methyl)-4H-1,2,4-triazol-3-yl)methyl)-2-(4-fluorobenzylthio)-6,7-dihydro-1H-cyclopenta[d]pyrimidin-4(5H)-one] | 76% | – | 92% | – | – | – | – | –
CN(C)CCN(C)Cc1onc(Cn2c(SCc3ccc(F)cc3)nc(=O)c3c2CCC3)c1Cc1ccc(-c2ccc(C(F)(F)F)cc2)cc1 [Example 158, 1-((5-(((2-(dimethylamino)ethyl)(methyl)amino)methyl)-4-((4′-(trifluoromethyl)biphenyl-4-yl)methyl)isoxazol-3-yl)methyl)-2-(4-fluorobenzylthio)-6,7-dihydro-1H-cyclopenta[d]pyrimidin-4(5H)-one] | 98% | – | 98% | > 80% | > 90% | – | – | –
CN(CCN1CCCCC1)Cc1onc(Cn2c(SCc3ccc(F)cc3)nc(=O)c3c2CCC3)c1Cc1ccc(-c2ccc(C(F)(F)F)cc2)cc1 [Example 161, 2-(4-fluorobenzylthio)-1-((5-((methyl(2-(piperidin-1-yl)ethyl)amino)methyl)-4-((4′-(trifluoromethyl)biphenyl-4-yl)methyl)isoxazol-3-yl)methyl)-6,7-dihydro-1H-cyclopenta[d]pyrimidin-4(5H)-one] | 100% | – | 99% | > 80% | > 90% | – | – | –
O=C1NCCN1CCNCc1nnc(Cn2c(SCc3ccc(F)cc3)nc(=O)c3c2CCC3)n1Cc1ccc(-c2ccc(C(F)(F)F)cc2)cc1 [Example 102, 2-(4-fluorobenzylthio)-1-((5-((2-(2-oxoimidazolidin-1-yl)ethylamino)methyl)-4-((4′-(trifluoromethyl)biphenyl-4-yl)methyl)-4H-1,2,4-triazol-3-yl)methyl)-6,7-dihydro-1H-cyclopenta[d]pyrimidin-4(5H)-one] | 77% | – | 97% | – | – | – | – | –
CCN1CCC[C@H]1CNCc1nnc(Cn2c(SCc3ccc(F)cc3)nc(=O)c3c2CCC3)n1Cc1ccc(-c2ccc(C(F)(F)F)cc2)cc1 [Example 106, (S)-1-((5-(((1-ethylpyrrolidin-2-yl)methylamino)methyl)-4-((4′-(trifluoromethyl)biphenyl-4-yl)methyl)-4H-1,2,4-triazol-3-yl)methyl)-2-(4-fluorobenzylthio)-6,7-dihydro-1H-cyclopenta[d]pyrimidin-4(5H)-one] | 80% | – | 96% | > 80% | > 90% | – | – | –
CC(NCCN(C)C)c1nnc(Cn2c(SCc3ccc(F)cc3)nc(=O)c3c2CCC3)n1Cc1ccc(-c2ccc(C(F)(F)F)cc2)cc1 (centres unmarked) [Example 128, 1-((5-(1-(2-(dimethylamino)ethylamino)ethyl)-4-((4′-(trifluoromethyl)biphenyl-4-yl)methyl)-4H-1,2,4-triazol-3-yl)methyl)-2-(4-fluorobenzylthio)-6,7-dihydro-1H-cyclopenta[d]pyrimidin-4(5H)-one] | 90% | – | 94% | > 80% | > 90% | – | – | –

Now from value to molecule:

inhibition at 0.01 µM (Lp-PLA2 in human serum; [1]) | inhibition at 0.1 µM (Lp-PLA2 in human serum; 100 nM, human serum) | inhibition at 0.1 µM (Lp-PLA2 in rabbit serum; [2]) | inhibition at 0.01 µM (Lp-PLA2 in human serum; [3]) | inhibition at 0.1 µM (Lp-PLA2 in rabbit serum; [4]) | inhibition, % (Lp-PLA2 in human serum; 10 nM, human serum, 0.01 µM) | inhibition, % (Lp-PLA2 in human serum; 100 nM, human serum, 0.1 µM) | inhibition, % (Lp-PLA2 in rabbit serum; rabbit serum, 0.1 µM) | SMILES
88% | 100% | 94% | > 80% | > 90% | – | – | – | CN(C)/N=C/c1nnc(Cn2c(SCc3ccc(F)cc3)nc(=O)c3c2CCC3)n1Cc1ccc(-c2ccc(C(F)(F)F)cc2)cc1 [Example 116, (E)-1-((5-((2,2-dimethylhydrazono)methyl)-4-((4′-(trifluoromethyl)biphenyl-4-yl)methyl)-4H-1,2,4-triazol-3-yl)methyl)-2-(4-fluorobenzylthio)-6,7-dihydro-1H-cyclopenta[d]pyrimidin-4(5H)-one]
87% | 97% | 89% | – | – | – | – | – | O=c1nc(SCc2ccc(F)cc2)n(Cc2nnc(CS(=O)(=O)Cc3ccccc3)n2Cc2ccc(-c3ccc(C(F)(F)F)cc3)cc2)c2c1CCC2 [Example 69, 1-((5-(benzylsulfonylmethyl)-4-((4′-(trifluoromethyl)biphenyl-4-yl)methyl)-4H-1,2,4-triazol-3-yl)methyl)-2-(4-fluorobenzylthio)-6,7-dihydro-1H-cyclopenta[d]pyrimidin-4(5H)-one]
68% | 93% | 85.3% | – | – | – | – | – | CCN(CC)Cc1nnc(Cn2c(SCc3ccc(F)cc3)nc(=O)c3c2CCC3)n1Cc1ccc(-c2ccc(C(F)(F)F)cc2)cc1 [Example 79, 1-((5-((diethylamino)methyl)-4-((4′-(trifluoromethyl)biphenyl-4-yl)methyl)-4H-1,2,4-triazol-3-yl)methyl)-2-(4-fluorobenzylthio)-6,7-dihydro-1H-cyclopenta[d]pyrimidin-4(5H)-one]
83% | 96% | 81.9% | – | – | 76% | 94% | 73.8% | COC(=O)CN(C)Cc1nnc(Cn2c(SCc3ccc(F)cc3)nc(=O)c3c2CCC3)n1Cc1ccc(-c2ccc(C(F)(F)F)cc2)cc1 [Example 62, methyl 2-(((5-((2-(4-fluorobenzylthio)-4-oxo-4,5,6,7-tetrahydro-1H-cyclopenta[d]pyrimidin-1-yl)methyl)-4-((4′-(trifluoromethyl)biphenyl-4-yl)methyl)-4H-1,2,4-triazol-3-yl)methyl)(methyl)amino)acetate]
56% | 91% | 64% | – | – | – | – | – | CNC(=S)NCc1nnc(Cn2c(SCc3ccc(F)cc3)nc(=O)c3c2CCC3)n1Cc1ccc(-c2ccc(C(F)(F)F)cc2)cc1 [Example 113, 1-((5-((2-(4-fluorobenzylthio)-4-oxo-4,5,6,7-tetrahydro-1H-cyclopenta[d]pyrimidin-1-yl)methyl)-4-((4′-(trifluoromethyl)biphenyl-4-yl)methyl)-4H-1,2,4-triazol-3-yl)methyl)-3-methylthiourea]
77% | – | 78% | – | – | – | – | – | O=c1nc(SCc2ccc(F)cc2)n(Cc2nnc(CSCc3ccc(F)cc3)n2Cc2ccc(-c3ccc(C(F)(F)F)cc3)cc2)c2c1CCC2 [Example 115, 2-(4-fluorobenzylthio)-1-((5-((4-fluorobenzylthio)methyl)-4-((4′-(trifluoromethyl)biphenyl-4-yl)methyl)-4H-1,2,4-triazol-3-yl)methyl)-6,7-dihydro-1H-cyclopenta[d]pyrimidin-4(5H)-one]
97% | 98% | 93% | > 80% | > 90% | – | – | – | C[N+](C)(C)Cc1nnc(Cn2c(SCc3ccc(F)cc3)nc(=O)c3c2CCC3)n1Cc1ccc(-c2ccc(C(F)(F)F)cc2)cc1 [Example 77, 1-(5-((2-(4-fluorobenzylthio)-4-oxo-4,5,6,7-tetrahydro-1H-cyclopenta[d]pyrimidin-1-yl)methyl)-4-((4′-(trifluoromethyl)biphenyl-4-yl)methyl)-4H-1,2,4-triazol-3-yl)-N,N,N-trimethylmethanaminium iodide]
